# Source: PubChem BioAssay AID1259407 (Chemical Carcinogenesis Research Information System (CCRIS), 2018)
# Calls of active or inactive are those of the source. How the calls were made is not given here.
# Tested on: CCRIS mutagenicity, Ames/micronucleus/aberration tests
# Assay: CCRIS mutagenicity studies
# [1] = Test System: AMES SALMONELLA TYPHIMURIUM, Strain/Indicator: TA98, Metabolic Activation: NONE, Method: STANDARD PLATE
# [2] = Test System: AMES SALMONELLA TYPHIMURIUM, Strain/Indicator: TA98, Metabolic Activation: RAT, LIVER, S-9, AROCLOR 1254, Method: STANDARD PLATE
# [3] = Test System: AMES SALMONELLA TYPHIMURIUM, Strain/Indicator: TA100, Metabolic Activation: NONE, Method: STANDARD PLATE
# [4] = Test System: AMES SALMONELLA TYPHIMURIUM, Strain/Indicator: TA100, Metabolic Activation: RAT, LIVER, S-9, AROCLOR 1254, Method: STANDARD PLATE
# [5] = Test System: AMES SALMONELLA TYPHIMURIUM, Strain/Indicator: TA1535, Metabolic Activation: NONE, Method: STANDARD PLATE
# [6] = Test System: AMES SALMONELLA TYPHIMURIUM, Strain/Indicator: TA1535, Metabolic Activation: RAT, LIVER, S-9, AROCLOR 1254, Method: STANDARD PLATE
# [7] = Test System: AMES SALMONELLA TYPHIMURIUM, Strain/Indicator: TA1537, Metabolic Activation: NONE, Method: STANDARD PLATE
# [8] = Test System: AMES SALMONELLA TYPHIMURIUM, Strain/Indicator: TA1537, Metabolic Activation: RAT, LIVER, S-9, AROCLOR 1254, Method: STANDARD PLATE
compound,measurement,setting,value
Cc1cc2ccccc2c2cc3ccccc3cc12,mutagenic call,"Test System: AMES SALMONELLA TYPHIMURIUM, Strain/Indicator: TA100, Metabolic Activation: RAT, INTACT HEPATOCYTES, AROCLOR 1254, Method: PREINCUBATION",active; positive
same,mutagenic call,"Test System: AMES SALMONELLA TYPHIMURIUM, Strain/Indicator: TA100, Metabolic Activation: RAT, LIVER, S-9, AROCLOR 1254, Method: PREINCUBATION",active; positive
same,mutagenic call,"Test System: AMES SALMONELLA TYPHIMURIUM, Strain/Indicator: TA100, Metabolic Activation: RAT, NADPH-FORTIFIED HOMOGENIZED HEPATOCYTES, AROCLOR 1254, Method: PREINCUBATION",active; positive
same,mutagenic call,"Test System: AMES SALMONELLA TYPHIMURIUM, Strain/Indicator: TA100, Metabolic Activation: RAT, SONICATED HEPATOCYTES, AROCLOR 1254, Method: PREINCUBATION",active; positive
CCN(CC)c1ccc(N=Nc2ccc([N+](=O)[O-])cc2)cc1,mutagenic call,[1],inactive; negative
same,mutagenic call,[2],active; positive
same,mutagenic call,[3],inactive; negative
same,mutagenic call,[4],inactive; negative
same,mutagenic call,[5],inactive; negative
same,mutagenic call,[6],inactive; negative
same,mutagenic call,[7],inactive; negative
same,mutagenic call,[8],inactive; negative
same,mutagenic call,"Test System: CHINESE HAMSTER V-79, Strain/Indicator: V-79 (HGPRT)/6-THIOGUANINE, Metabolic Activation: NONE",inactive; negative
same,mutagenic call,"Test System: CHINESE HAMSTER V-79, Strain/Indicator: V-79 (HGPRT)/6-THIOGUANINE, Metabolic Activation: RAT, LIVER, S-9, KANECLOR 400",inactive; negative
same,mutagenic call,"Test System: UDS RAT HEPATOCYTES, Strain/Indicator: THY INCORP, Metabolic Activation: NONE, Method: AUTORADIOGRAPHY",inactive; negative
ClNc1ccc2c(c1)Cc1ccccc1-2,mutagenic call,[2],active; positive
O=C(Cl)c1c(Cl)cccc1Cl,mutagenic call,"Test System: AMES SALMONELLA TYPHIMURIUM, Strain/Indicator: TA98, Metabolic Activation: NONE, Method: PREINCUBATION",active; positive
same,mutagenic call,"Test System: AMES SALMONELLA TYPHIMURIUM, Strain/Indicator: TA98, Metabolic Activation: RAT LIVER S-9, PCB, Method: PREINCUBATION",active; positive
same,mutagenic call,"Test System: AMES SALMONELLA TYPHIMURIUM, Strain/Indicator: TA100, Metabolic Activation: NONE, Method: PREINCUBATION",active; positive
same,mutagenic call,"Test System: AMES SALMONELLA TYPHIMURIUM, Strain/Indicator: TA100, Metabolic Activation: RAT LIVER S-9, PCB, Method: PREINCUBATION",active; positive
same,mutagenic call,"Test System: AMES SALMONELLA TYPHIMURIUM, Strain/Indicator: TA104, Metabolic Activation: NONE, Method: PREINCUBATION",inactive; negative
same,mutagenic call,"Test System: AMES SALMONELLA TYPHIMURIUM, Strain/Indicator: TA104, Metabolic Activation: RAT LIVER S-9, PCB, Method: PREINCUBATION",active; positive
same,mutagenic call,"Test System: E.COLI, Strain/Indicator: WP2 UVRA, Metabolic Activation: NONE, Method: PREINCUBATION",active; positive
same,mutagenic call,"Test System: E.COLI, Strain/Indicator: WP2 UVRA, Metabolic Activation: RAT LIVER S-9, PCB, Method: PREINCUBATION",active; positive
CC(O)CN(N=O)C(N)=O (centres undefined),mutagenic call,"Test System: E. COLI B, Strain/Indicator: H/R30R, Metabolic Activation: NONE",active; positive
same,mutagenic call,"Test System: E. COLI B, Strain/Indicator: HS30R, Metabolic Activation: NONE",active; positive
O=[N+]([O-])c1cccc(Cl)c1F,mutagenic call,"End Point: IN VITRO CHROMOSOMAL ABERRATIONS, Test System: CHL CELLS, Metabolic Activation: RAT, LIVER, S-9, SODIUM PHENOBARBITAL AND 5,6-BENZOFLAVONE",active; positive (structural changes)
CCOCOCC,mutagenic call,"Test System: AMES SALMONELLA TYPHIMURIUM, Strain/Indicator: TA98, Metabolic Activation: HAMSTER, LIVER, S-9, AROCLOR 1254, Method: STANDARD PLATE",inactive; negative
same,mutagenic call,[1],inactive; negative
same,mutagenic call,[2],inactive; negative
same,mutagenic call,"Test System: AMES SALMONELLA TYPHIMURIUM, Strain/Indicator: TA100, Metabolic Activation: HAMSTER, LIVER, S-9, AROCLOR 1254, Method: STANDARD PLATE",inactive; negative
same,mutagenic call,[3],inactive; negative
same,mutagenic call,[4],inactive; negative
same,mutagenic call,"Test System: AMES SALMONELLA TYPHIMURIUM, Strain/Indicator: TA1535, Metabolic Activation: HAMSTER, LIVER, S-9, AROCLOR 1254, Method: STANDARD PLATE",inactive; negative
same,mutagenic call,[5],inactive; negative
same,mutagenic call,[6],inactive; negative
same,mutagenic call,"Test System: AMES SALMONELLA TYPHIMURIUM, Strain/Indicator: TA1537, Metabolic Activation: HAMSTER, LIVER, S-9, AROCLOR 1254, Method: STANDARD PLATE",inactive; negative
same,mutagenic call,[7],inactive; negative
same,mutagenic call,[8],inactive; negative
same,mutagenic call,"Test System: AMES SALMONELLA TYPHIMURIUM, Strain/Indicator: TA1538, Metabolic Activation: HAMSTER, LIVER, S-9, AROCLOR 1254, Method: STANDARD PLATE",inactive; negative
same,mutagenic call,"Test System: AMES SALMONELLA TYPHIMURIUM, Strain/Indicator: TA1538, Metabolic Activation: NONE, Method: STANDARD PLATE",inactive; negative
same,mutagenic call,"Test System: AMES SALMONELLA TYPHIMURIUM, Strain/Indicator: TA1538, Metabolic Activation: RAT, LIVER, S-9, AROCLOR 1254, Method: STANDARD PLATE",inactive; negative
same,mutagenic call,"Test System: MOUSE LYMPHOMA, Strain/Indicator: L5178Y (TK+/TK-), Metabolic Activation: NONE, Method: SUSPENSION/PLATE",inactive; negative. reevaluation of results: negative
same,mutagenic call,"Test System: MOUSE LYMPHOMA, Strain/Indicator: L5178Y (TK+/TK-), Metabolic Activation: RAT, LIVER, S-9, AROCLOR 1254, Method: SUSPENSION/PLATE",active; positive. reevaluation of results: positive
